Results from US20160058829A1, “ANTI-FIBROTIC PEPTIDES AND THEIR USE IN METHODS FOR TREATING DISEASES AND DISORDERS CHARACTERIZED BY FIBROSIS” (Thrasos Innovation, Inc., priority 2011, published 2016).
Positions of bridges follow the written chain, without caps; N, C: chain ends.

Tests used:
Smad 1/5/8 = Smad 1/5/8 phosphorylation and nuclear translocation in HK-2 cells; assay type: cell-based, human
Experimental: Human renal proximal tubule epithelial cells (HK-2) were incubated in the presence (right panel) and absence (left panel) of THR-123. The cells were washed, and then incubated with the primary antibody against phospho Smad 1/5/8, followed by immunostaining with a fluorescently labeled secondary antibody. The significance of pSmad 1/5/8 in renal fibrosis is tied to BMP7 suppression of TGF-β-dependent profibrotic pathways, which are central to renal fibrotic injury. Specifically, BMP7 suppression of such TGF-β-dependent profibrotic pathways is mediated in part by the activation of downstream BMP target proteins, Smad 1, 5, and 8. (Manson S R et al., J. Urol. 85:2523-30, 2011).

[1] = tested on: human proximal tubule epithelial cells (HK2); experiment: D-glucose-induced EMT assay, E-cadherin immunofluorescence with colorimetric image analysis; assay type: cell-based; conditions: D-glucose 50 mM
Experimental: Chronic hyperglycemia is a known cause of renal fibrosis in type 2 diabetes. The assay in this example induces the transdifferentiation from the epithelial to the mesenchymal phenotype (EMT) in human proximal tubule epithelial cells (HK2) by exposing them to high levels of D-glucose (100 mM and 200 mM). […] Exposure to 100 mM D-glucose results in the loss of E-cadherine expression as evidenced by the loss of the fluorescene signal. Using this assay test compounds are evaluated based on their ability to inhibit the EMT processes in the presence of high levels of D-glucose. FIGS. 4-16 are fluorescence micrographs of HK2 cells exposed to 100 mM D-glucose and 100 uM of SEQ IS NOs 1 through 11, respectively. Note that all but SEQ ID NOs 10 and 11 were able to preserve the epithelial phenotype (i.e., inhibit the EMT).
Results are provided in the context of FIG. 1 and Table 3, below. In Table 3 below, compound response is scored using image analysis as described herein in the method of Methods and Materials, part C. A 0% response corresponds to the signal for 100 mM (or 200 mM) D-glucose (untreated) while the 100% response corresponds to the signal for media in the absence of D-glucose.
It has been shown that transdifferentiation of proximal tubular epithelial cells is a critical step in the development of renal fibrosis, and that this is associated with a loss of the epithelial phenotypic marker, E-cadherin expression. This provides the basis for the development of a cell-based screening assay in which high concentrations of D-Glucose (50-100 mM) are used to induce a loss of E-cadherin expression in human renal proximal tubular epithelial (HK-2) cells, and compounds are tested for their ability to reverse the loss E-cadherin expression.
Materials: • Human proximal tubular epithelial cells, HK-2 (ATCC #CRL-2190) • Serum-free keratinocyte medium (GIBCO #17005-042, K-SFM) • Epidermal growth factor (EGF: 5 ng/mL) • Bovine pituitary extract (BPE: 40 ug/mL) • Primary antibody, Mouse IgG anti-E-cadherin (R&D Systems # MAB1838) • BSA [Sigma #A7030] • secondary antibody, FITC-conjugated Goat anti-mouse IgG (Fab2) fragment (Sigma-Aldrich # F-2653) • Paraformaldehyde (10%)) • Triton X-100 (Sigma # T-9284) • PBS (Fisher Scientific #BP399-1) • D-PBS (Invitrogen #14190-144) • Polypropylene tips (Axygen, Inc. 0.5-10 uL, cat # T-300-L-R; 1-200 uL, Cat # T-200-L-R; 1-1000 uL, Cat # T-1000-C-L-R) • 50 mL polypropylene culture tubes (Fisher Scientific, cat #06-443-18) • 24-well Coster cell culture plates (Fisher Scientific #07-200-84)
Reagents & Test Samples: • Positive control: BMP-7, assayed at concentrations 0.1 and 1 ug/mL • Test compounds (peptides): each tested at final concentrations 100 uM and 200 uM.
Assay Procedure for Cell Culture Assay: • Run assay in 24-well culture plates. • Seed HK-2 cells at a density between 25,000 and 30,000 cells per well in lmL K-SFM medium with supplements added (growth medium) • Incubate HK-2 cells for 24 hours at 37° C., and let cells attach the plate • Next Day afternoon, change the medium with K-SFM medium with no added supplements (serum free medium) in all wells except the first two control wells. • Continue incubating HK-2 cells overnight at 37° C. • Next Day, aspirate the medium from all wells. Incubate the cells in growth medium (first two control wells) or expose them to test compounds for 2 hours at 37° C. Final concentrations of each Test compound are 100 and 200 uM. BMP-7 serves as a positive control in the assay. • After incubation, add D-glucose to all wells except first two control wells. Final concentrations of D-Glucose are 50 and 100 mM. • Incubate HK-2 cells for 60 hours at 37° C. • Aspirate the medium from all wells. To the wells, add pre-warmed growth medium or serum free medium containing D-glucose alone or D-glucose and test compound or D-glucose and BMP-7. Final concentrations of D-Glucose and Test compound are the same as above. • Continue incubating HK-2 cells for 24 hours at 37° C. […]

(H)-CYFDDSSNVLCKKYRS-(OH) (H-CYFDDSSNVLCKKYRS-OH; disulfide 1-11; SMILES CC(C)C[C@@H]1NC(=O)[C@H](C(C)C)NC(=O)[C@H](CC(N)=O)NC(=O)[C@H](CO)NC(=O)[C@H](CO)NC(=O)[C@H](CC(=O)O)NC(=O)[C@H](CC(=O)O)NC(=O)[C@H](Cc2ccccc2)NC(=O)[C@H](Cc2ccc(O)cc2)NC(=O)[C@@H](N)CSSC[C@@H](C(=O)N[C@@H](CCCCN)C(=O)N[C@@H](CCCCN)C(=O)N[C@@H](Cc2ccc(O)cc2)C(=O)N[C@@H](CCCNC(=N)N)C(=O)N[C@@H](CO)C(=O)O)NC1=O) [SEQ ID NO: 1]
Smad 1/5/8 phosphorylation and nuclear translocation (Smad 1/5/8): induces Smad 1/5/8 phosphorylation and nuclear translocation
prevention of D-glucose induced loss of epithelial phenotype (E-cadherin expression) [1]: effectively prevents
